Among the data in patent US11801310B2, “Composition for improving the solubility of poorly soluble substances, use thereof and complex formulation containing thereof” (Industrial Technology Research Institute, priority 2017, dated 2023) are Water solubility and solubility values, retold here.

The conditions of data set [1]: at 25° C.; cited from earlier work.
Data set [2] can be described thus: Solubility test for LE, Example 1-2: histidine as stabilizer. It counts as physicochemical. The following applies: secondary water, aqueous with cosolvent or surfactant or cyclodextrin; final volume 1 mL, pH 5.5, room temperature, 0.22 μm filtered, HPLC. The source says: The samples were formulated and analyzed according to the formulas shown in the following Table 3 and the methods described below at room temperature.
Hydroxypropyl-γ-cyclodextrin, a water-soluble polymer (hydroxypropyl methyl cellulose (HPMC) (molecular weight: 16676)), and histidine (His) as a stabilizer of the formulation were co-dissolved in secondary water to form a solution.
[…] After that, […], and the pH was adjusted to 5.5 with a 0.1 M HCl aqueous solution, and the final solution volume was fixed to 1 mL (the insufficient portion was replenished with secondary water) to form a test sample. Thereafter, the test sample was then filtered with a 0.22 μm pore size filter to remove undissolved precipitate. Finally, the content of loteprednol etabonate (LE) in the test sample was analyzed by high performance liquid chromatography (HPLC).

A short description of data set [3]: Solubility test for loteprednol etabonate (LE), Example 1-1: different amino acids, oligopeptides or monosaccharide as stabilizer. Format: physicochemical. The following applies: aqueous with cosolvent or surfactant or cyclodextrin, thermodynamic from solid; LE feeding 4000 μg; re-dissolved in 2 mL deionized water, pH 5.5, room temperature, 0.22 μm filtered, HPLC. As to the method: The samples were formulated and analyzed according to the formulas shown in the following Table 1 and the methods described below at room temperature. […] After that, the mixture was dried in a vacuum environment to performing drying to remove the solvent therein and obtain a dried product. […] Next, the test sample was filtered with a 0.22 μm pore size filter to remove undissolved precipitate. Finally, the content of loteprednol etabonate (LE) in the test sample was analyzed by high performance liquid chromatography (HPLC).

The nature of data set [4]: Solubility test for LE, Example 1-3: glutathione as stabilizer. Format: physicochemical. The following applies: secondary water, aqueous with cosolvent or surfactant or cyclodextrin; final volume 1 mL, pH 5.5, room temperature, 0.22 μm filtered, HPLC. On the procedure:
The samples were formulated and analyzed according to the formula shown in the following Table 5 and the methods described below at room temperature.
[…] After that, the mixture was treated by a rotary evaporator to completely remove methanol, and the pH was adjusted to 5.5 with a 1 M NaOH aqueous solution, and the final solution volume was fixed to 1 mL (the insufficient portion was replenished with secondary water) to form a test sample. Thereafter, the test sample was then filtered with a 0.22 μm pore size filter to remove undissolved precipitate. Finally, the content of loteprednol etabonate (LE) in the test sample was analyzed by high performance liquid chromatography (HPLC).

Converted amounts (≈) assume the structure as drawn.

For the molecule `N[C@@H](CCC(=O)N[C@@H](CS)C(=O)NCC(=O)O)C(=O)O` [GSH, glutathione], the Water solubility in data set [1] is 950 mM.

Consider `CCOC(=O)O[C@]1(C(=O)OCCl)CC[C@H]2[C@@H]3CCC4=CC(=O)C=C[C@]4(C)[C@H]3[C@@H](O)C[C@@]21C` [LE, loteprednol etabonate], for which the solubility in data set [2], in data set [3] and in data set [4] was 1.5 µg/mL (≈ 3.21 µM) each time. In the case of `OC[C@@H](O)[C@@H](O)[C@H](O)[C@H](O)CO` [Mannitol, mannitol], the Water solubility in data set [1] is 1190 mM.
